Results: US20220305012A1, “L[…] TREATING SLEEP ISSUES” (EISAI R&D MANAGEMENT CO., LTD., priority 2019, published 2022)

How the values were obtained:
Format in all cases: in vivo, human
[1] = system: Subjects Having Insomnia Disorder; experiment: Example 3: proportion of sWASO responders (pooled Examples 1 and 2)
Method: (§1) The data collected in studies described in Example 1 and Example 2 were pooled and the response of each subject was analyzed.

[2] = system: Subjects Having Insomnia Disorder; experiment: Example 3: proportion of subjects whose ISI Total Score decreased and was <10 (pooled); conditions: for percentage of subjects whose ISI Total Score decreased at month 1 and was less than 10: end of month 1, pooled Examples 1 and 2; for Responder No: subjects whose Insomnia Severity Index Total Score decreased from Baseline to Month 1 and was <10 / Responder Yes: subjects whose Insomnia Severity Index Total Score decreased from Baseline to Month 1 and was <10: Full Analysis Set, Examples 1 and 2; for Responder No: subjects whose Insomnia Severity Index Total Score decreased from Baseline to Month 1 and was <10 / Responder Yes: subjects whose Insomnia Severity Index Total Score decreased from Baseline to Month 1 and was <10 / Difference of proportion of responders vs. Placebo: Month 1; for Difference of proportion of responders vs. Placebo: ISI Total Score decreased and <10
Method: as §1
Table 32 provides the summary and analysis of responders, defined as those subjects whose Total ISI Score decreased at the end of month 1 by 7 or more points compared to baseline. Table 33 provides the summary and analysis of responders, defined as those subjects whose ISI Total Score decreased compared to baseline and was less than 10 at month 1.

[3] = system: Subjects Having Insomnia Disorder; experiment: Example 3: proportion of sSOL responders (pooled Examples 1 and 2)
Method: as §1

[4] = system: Subjects Having Insomnia Disorder; experiment: Example 1: subjective sleep efficiency (sSE), Sleep Diary
Source text: As used herein, the term “subjective sleep efficiency”, abbreviated as “sSE”, means the proportion of sTST per subjective time spent in bed, calculated as the interval from the time the subject reports attempting to sleep until the time the subject stopped trying to sleep for the night (operationalized as the time the subject got out of bed for the day), and time spent asleep derived from subjective time spent in bed minus sWASO. As used herein, an “improvement of sleep efficiency in Subjective Sleep Efficiency (sSE)” means an increase in sleep efficiency in Subjective Sleep Efficiency (sSE).
In some embodiments, sleep diaries were used to assess sleep parameters reported by subjects (i.e., subjective assessments) including subjective sleep onset latency (sSOL), subjective sleep efficiency (sSE), subjective WASO (sWASO), and subjective total sleep time (sTST). Subjects were instructed to complete the Sleep Diary developed based on the consensus Sleep Diary as described in Carney et al., “The consensus sleep diary: standardizing prospective sleep self-monitoring,” Sleep 2012; 35(2):287-302. In some embodiments, the Sleep Diary was used to assess the subject's global perception of quality of sleep on the previous night with the following question: “How would you rate the quality of your sleep last night?” Subjects rated the quality of their sleep on a scale from 1 to 9, with 1 being extremely poor and 9 being extremely good. In some embodiments, the Sleep Diary was used to assess subjective ratings of morning sleepiness with the following question: “How alert/sleepy do you feel this morning?” Subjects rated their sleepiness/alertness level on a Likert scale from 1 to 9, with 1 being extremely sleepy and 9 being extremely alert.
sSE—subjective sleep efficiency: proportion of sTST per subjective time spent in bed, calculated as the interval from the time the subject reports attempting to sleep until the time the subject stopped trying to sleep for the night (operationalized as the time the subject got out of bed for the day), and time spent asleep derived from subjective time in bed minus sWASO.
Subjects were randomized in a double-blind manner and received either placebo, 5 mg of lemborexant, or 10 mg of lemborexant (approximately 1:1:1 randomization). All subjects underwent routine safety monitoring through the study, including assessments of treatment-emergent adverse events, 12-lead electrocardiograms, vital signs, weight, and clinical hematology and blood chemistry labs. Suicidality was assessed using the eC-SSRS.
Treatment period 1 began with the first dose of randomized study medication (placebo, 5 mg of lemborexant, or 10 mg of lemborexant). Subjects completed sleep diaries daily in the morning, within one hour of waketime. The subjects were assessed by a clinician one month, two months, three months, and six months after initiation of Treatment period 1. The following assessments were conducted:
This study had two key secondary endpoints. The first key secondary endpoint was the mean change from study baseline in subjective sleep efficiency at month 6. The second key secondary endpoint was the mean change from study baseline of subjective wake after sleep onset at month 6.

[5] = First 7 Days, Lemborexant 10 mg

In the case of Cc1ncc(OC[C@@]2(c3cccc(F)c3)C[C@H]2C(=O)Nc2ccc(F)cn2)c(C)n1 [Lemborexant, (1R,2S)-2-(((2,4-dimethylpyrimidin-5-yl)oxy)methyl)-2-(3-fluorophenyl)-N-(5-fluoropyridin-2-yl)cyclopropanecarboxamide], the “Subjective Wake After Sleep Onset Responder, No, n (%)” value ([1]; First 7 Days, Lemborexant 5 mg) is reported as 420 (81.1) n (%), the “Subjective Wake After Sleep Onset Responder, Yes, n (%)” value ([1]; First 7 Days, Lemborexant 5 mg) is reported as 91 (17.6) n (%) and the “Subjective Wake After Sleep Onset Responders, Difference of proportion vs. Placebo” value ([1]; First 7 Days, Lemborexant 5 mg) is reported as 6.15. For the same compound, the “Subjective Wake After Sleep Onset Responder, No, n (%)” value [1, 5] was 411 (79.5) n (%), the “Subjective Wake After Sleep Onset Responder, Yes, n (%)” value [1, 5] was 100 (19.3) n (%) and the “Subjective Wake After Sleep Onset Responders, Difference of proportion vs. Placebo” value [1, 5] was 7.84. The “Subjective Wake After Sleep Onset Responder, No, n (%)” value ([1]; Month 1, Lemborexant 5 mg) was 372 (71.8) n (%), the “Subjective Wake After Sleep Onset Responder, Yes, n (%)” value ([1]; Month 1, Lemborexant 5 mg) was 121 (23.4) n (%) and the “Subjective Wake After Sleep Onset Responders, Difference of proportion vs. Placebo” value ([1]; Month 1, Lemborexant 5 mg) was 5.61. For the same compound, the “Subjective Wake After Sleep Onset Responder, No, n (%)” value ([1]; Month 1, Lemborexant 10 mg) was 368 (71.2) n (%), the “Subjective Wake After Sleep Onset Responder, Yes, n (%)” value ([1]; Month 1, Lemborexant 10 mg) was 122 (23.6) n (%) and the “Subjective Wake After Sleep Onset Responders, Difference of proportion vs. Placebo” value ([1]; Month 1, Lemborexant 10 mg) was 5.96. For the same compound, the “proportion of sWASO responders compared with placebo” value ([1]; both doses, first 7 days and end of month 1, responder: sWASO of 60 or less minutes and reduction of at least 10 minutes, baseline >60 minutes (Table 31)) was “statistically significantly superior”, the “percentage of subjects whose ISI Total Score decreased at month 1 and was less than 10” value ([2]; 5 mg) was 33.0% and the “percentage of subjects whose ISI Total Score decreased at month 1 and was less than 10” value ([2]; 10 mg) was 33.4%. For the same compound, the “Responder No: subjects whose Insomnia Severity Index Total Score decreased from Baseline to Month 1 and was <10” value ([2]; Lemborexant 5 mg (N = 582)) was 366 (62.9) n (%), the “Responder Yes: subjects whose Insomnia Severity Index Total Score decreased from Baseline to Month 1 and was <10” value ([2]; Lemborexant 5 mg (N = 582)) was 192 (33.0) n (%) and the “Difference of proportion of responders vs. Placebo” value ([2]; Lemborexant 5 mg vs placebo) was 12.44. The “Responder No: subjects whose Insomnia Severity Index Total Score decreased from Baseline to Month 1 and was <10” value ([2]; Lemborexant 10 mg (N = 584)) was 345 (59.1) n (%), the “Responder Yes: subjects whose Insomnia Severity Index Total Score decreased from Baseline to Month 1 and was <10” value ([2]; Lemborexant 10 mg (N = 584)) was 195 (33.4) n (%) and the “Difference of proportion of responders vs. Placebo” value ([2]; Lemborexant 10 mg vs placebo) was 12.71. The “difference of proportion of responders (ISI Total Score decreased and less than 10) versus placebo” value ([2]; both doses, month 1 (Table 33)) was “statistically significant”, the “Subjective Sleep Onset Latency Responder, No, (%)” value ([3]; First 7 Days, Lemborexant 5 mg) was “(86.3) %” and the “Subjective Sleep Onset Latency Responder, Yes, (%)” value ([3]; First 7 Days, Lemborexant 5 mg) was “(12.4) %”. The “Subjective Sleep Onset Latency Responders, Difference of proportion vs. Placebo” value ([3]; First 7 Days, Lemborexant 5 mg) was 7.80, the “Subjective Sleep Onset Latency Responder, No, (%)” value [3, 5] was “(86.2) %” and the “Subjective Sleep Onset Latency Responder, Yes, (%)” value [3, 5] was “(12.6) %”. For the same compound, the “Subjective Sleep Onset Latency Responders, Difference of proportion vs. Placebo” value [3, 5] was 7.80, the “Subjective Sleep Onset Latency Responder, No, (%)” value ([3]; Month 1, Lemborexant 5 mg) was “(76.8) %” and the “Subjective Sleep Onset Latency Responder, Yes, (%)” value ([3]; Month 1, Lemborexant 5 mg) was “(18.4) %”. For the same compound, the “Subjective Sleep Onset Latency Responders, Difference of proportion vs. Placebo” value ([3]; Month 1, Lemborexant 5 mg) was 8.28, the “Subjective Sleep Onset Latency Responder, No, (%)” value ([3]; Month 1, Lemborexant 10 mg) was “(75.8) %” and the “Subjective Sleep Onset Latency Responder, Yes, (%)” value ([3]; Month 1, Lemborexant 10 mg) was “(21.0) %”. The “Subjective Sleep Onset Latency Responders, Difference of proportion vs. Placebo” value ([3]; Month 1, Lemborexant 10 mg) was 11.14, the “proportion of sSOL responders compared with placebo” value ([3]; both doses, first 7 days and end of month 1, responder: sSOL of 20 or less minutes provided baseline sSOL at least 30 minutes (Table 30)) was “statistically significantly superior” and the “subjective sleep efficiency compared with placebo” value ([4]; 5 mg and 10 mg, at the equivalent timepoint (Table 3)) was “greater increase in subjective sleep efficiency than subjects treated with placebo”. The “sSE, Mean” value ([4]; 5 mg, First 7 Nights) was 69.97%, the “sSE, Median” value ([4]; 5 mg, First 7 Nights) was 74.62% and the “sSE, Mean” value ([4]; 5 mg, Month 1) was 71.56%. For the same compound, the “sSE, Median” value ([4]; 5 mg, Month 1) was 76.35%, the “sSE, Mean” value ([4]; 5 mg, Month 3) was 77.29% and the “sSE, Median” value ([4]; 5 mg, Month 3) was 81.32%. The “sSE, Mean” value ([4]; 5 mg, Month 6) was 78.55%, the “sSE, Median” value ([4]; 5 mg, Month 6) was 82.02% and the “sSE, Mean” value ([4]; 5 mg, Study Baseline) was 63.14%. The “sSE, Median” value ([4]; 5 mg, Study Baseline) was 67.00%, the “sSE Change from Study Baseline, Mean” value ([4]; 5 mg, after 1 Month) was 7.87% and the “sSE Change from Study Baseline, Median” value ([4]; 5 mg, after 1 Month) was 6.75%. For the same compound, the “sSE Change from Study Baseline, Mean” value ([4]; 5 mg, after 3 Months) was 13.03%, the “sSE Change from Study Baseline, Median” value ([4]; 5 mg, after 3 Months) was 11.63% and the “sSE Change from Study Baseline, Mean” value ([4]; 5 mg, after 6 Months) was 15.34%. For the same compound, the “sSE Change from Study Baseline, Median” value ([4]; 5 mg, after 6 Months) was 13.33%, the “sSE Change from Study Baseline, Mean” value ([4]; 5 mg, after 7 Nights) was 6.61% and the “sSE Change from Study Baseline, Median” value ([4]; 5 mg, after 7 Nights) was 5.45%. The “sSE LSM treatment difference: Lemborexant-Placebo” value (“sSE LSM treatment difference” for short) ([4]; 5 mg, change from Study Baseline after 1 Month) was 2.227%, the “sSE LSM treatment difference” value ([4]; 5 mg, change from Study Baseline after 3 Months) was 4.222% and the “sSE LSM treatment difference” value ([4]; 5 mg, change from Study Baseline after 6 Months) was 4.549%. The “sSE LSM treatment difference” value ([4]; 5 mg, change from Study Baseline after 7 Nights) was 4.299%, the “sSE, Mean” value ([4]; 10 mg, First 7 Nights) was 69.96% and the “sSE, Median” value ([4]; 10 mg, First 7 Nights) was 71.85%. The “sSE, Mean” value ([4]; 10 mg, Month 1) was 71.04%, the “sSE, Median” value ([4]; 10 mg, Month 1) was 74.70% and the “sSE, Mean” value ([4]; 10 mg, Month 3) was 75.15%. The “sSE, Median” value ([4]; 10 mg, Month 3) was 78.30%, the “sSE, Mean” value ([4]; 10 mg, Month 6) was 76.53% and the “sSE, Median” value ([4]; 10 mg, Month 6) was 80.22%. For the same compound, the “sSE, Mean” value ([4]; 10 mg, Study Baseline) was 62.03%, the “sSE, Median” value ([4]; 10 mg, Study Baseline) was 65.05% and the “sSE Change from Study Baseline, Mean” value ([4]; 10 mg, after 1 Month) was 9.92%. For the same compound, the “sSE Change from Study Baseline, Median” value ([4]; 10 mg, after 1 Month) was 9.00%, the “sSE Change from Study Baseline, Mean” value ([4]; 10 mg, after 3 Months) was 13.61% and the “sSE Change from Study Baseline, Median” value ([4]; 10 mg, after 3 Months) was 12.62%. The “sSE Change from Study Baseline, Mean” value ([4]; 10 mg, after 6 Months) was 15.55%, the “sSE Change from Study Baseline, Median” value ([4]; 10 mg, after 6 Months) was 13.91% and the “sSE Change from Study Baseline, Mean” value ([4]; 10 mg, after 7 Nights) was 8.27%. The “sSE Change from Study Baseline, Median” value ([4]; 10 mg, after 7 Nights) was 7.17%, the “sSE LSM treatment difference” value ([4]; 10 mg, change from Study Baseline after 1 Month) was 3.615% and the “sSE LSM treatment difference” value ([4]; 10 mg, change from Study Baseline after 3 Months) was 4.361%. For the same compound, the “sSE LSM treatment difference” value ([4]; 10 mg, change from Study Baseline after 6 Months) was 4.667% and the “sSE LSM treatment difference” value ([4]; 10 mg, change from Study Baseline after 7 Nights) was 5.793%.
